Experimental data: US20100267561A1, “HERBICIDAL PYRIDAZINONE DERIVATIVES” (priority 2007, published 2010)

Columns and labels:
Format in all cases: in vivo
[1] = test system: canarygrass (Phalaris minor); experiment: Test C pre-/postemergence plant response
Outline: (§1)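 Visual rating vs untreated controls, 0 (no effect) to 100 (complete control), after 15–25 days in a controlled growth environment. Pre- and postemergence treatments; post plants at 1- to 4-leaf stage, 2–18 cm. Formulation: non-phytotoxic solvent mix plus surfactant.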

[2] = test system: wild mustard (Sinapis arvensis); experiment: Test C pre-/postemergence plant response
Outline: as §1

[3] = test system: Italian ryegrass (Lolium multiflorum); experiment: Test C pre-/postemergence plant response
Outline: as §1

[4] = test system: winter wheat (Triticum aestivum); experiment: Test C pre-/postemergence plant response
Outline: as §1

[5] = test system: winter barley (Hordeum vulgare); experiment: Test C pre-/postemergence plant response
Outline: as §1

[6] = test system: spring wheat (Triticum aestivum); experiment: Test C pre-/postemergence plant response
Outline: as §1

[7] = test system: blackgrass (Alopecurus myosuroides); experiment: Test C pre-/postemergence plant response
Outline: as §1

[8] = test system: windgrass (Apera spica-venti); experiment: Test C pre-/postemergence plant response
Outline: as §1

[9] = test system: annual bluegrass (Poa annua); experiment: Test C pre-/postemergence plant response
Outline: as §1

[10] = test system: green foxtail (Setaria viridis); experiment: Test C pre-/postemergence plant response
Outline: as §1

[11] = test system: spring barley (Hordeum vulgare); experiment: Test C pre-/postemergence plant response
Outline: as §1

[12] = test system: pigweed (Amaranthus retroflexus); experiment: Test C pre-/postemergence plant response
Outline: as §1

[13] = test system: wheat (Triticum aestivum); experiment: Test A pre-/postemergence plant response
Outline: (§2)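 Seeds were planted in blended loam soil and sand, then treated preemergence by directed soil spray. At that time, emerged plants (one- to two-leaf, 2–10 cm) received postemergence applications of the same surfactant-containing formulation. Injury was assessed visually on a 0–100 scale after approximately 10 days.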

[14] = test system: velvetleaf (Abutilon theophrasti); experiment: Test A pre-/postemergence plant response
Outline: as §2

[15] = test system: giant foxtail (Setaria faberi); experiment: Test A pre-/postemergence plant response
Outline: as §2

[16] = Postemergence, 8 g ai/ha, scale 0 to 100, 0 no effect, 100 complete control
[17] = Postemergence, 16 g ai/ha, scale 0 to 100, 0 no effect, 100 complete control
[18] = Postemergence, 31 g ai/ha, scale 0 to 100, 0 no effect, 100 complete control
[19] = Postemergence, 62 g ai/ha, scale 0 to 100, 0 no effect, 100 complete control
[20] = Preemergence, 8 g ai/ha, scale 0 to 100 (0 no effect, 100 complete control)
[21] = Preemergence, 16 g ai/ha, scale 0 to 100 (0 no effect, 100 complete control)
[22] = Preemergence, 31 g ai/ha, scale 0 to 100 (0 no effect, 100 complete control)
[23] = Preemergence, 62 g ai/ha, scale 0 to 100, 0 no effect, 100 complete control
[24] = Postemergence, 31 g ai/ha, 0 to 100 scale, 0 no effect, 100 complete control
[25] = Postemergence, 125 g ai/ha, 0 to 100 scale, 0 no effect, 100 complete control
[26] = Preemergence, 31 g ai/ha, 0 to 100 scale, 0 is no effect, 100 is complete control
[27] = Preemergence, 125 g ai/ha, 0 to 100 scale (0 no effect, 100 complete control)

## Cc1cc(-c2ccc(Cl)cc2)nn1-c1c(OC(=O)CC(C)C)cnn(C)c1=O [Compound 37]
[1]; [16]
  Plant response rating, Canarygrass: 0
[1]; [17]
  Plant response rating, Canarygrass: 35
[1]; [18]
  Plant response rating, Canarygrass: 75
[1]; [19]
  Plant response rating, Canarygrass: 100
[1]; [20]
  Plant response rating, Canarygrass: 15
[1]; [21]
  Plant response rating, Canarygrass: 60
[1]; [22]
  Plant response rating, Canarygrass: 80
[1]; [23]
  Plant response rating, Canarygrass: 95
[2]; [16]
  Plant response rating, Mustard, Wild: 0
[2]; [17]
  Plant response rating, Mustard, Wild: 0
[2]; [18]
  Plant response rating, Mustard, Wild: 0
[2]; [19]
  Plant response rating, Mustard, Wild: 0
[2]; [20]
  Plant response rating, Mustard, Wild: 0
[2]; [21]
  Plant response rating, Mustard, Wild: 0
[2]; [22]
  Plant response rating, Mustard, Wild: 0
[2]; [23]
  Plant response rating, Mustard, Wild: 0
[3]; [16]
  Plant response rating, Ryegrass, Italian: 75
[3]; [17]
  Plant response rating, Ryegrass, Italian: 95
[3]; [18]
  Plant response rating, Ryegrass, Italian: 100
[3]; [19]
  Plant response rating, Ryegrass, Italian: 100
[3]; [20]
  Plant response rating, Ryegrass, Italian: 0
[3]; [21]
  Plant response rating, Ryegrass, Italian: 80
[3]; [22]
  Plant response rating, Ryegrass, Italian: 98
[3]; [23]
  Plant response rating, Ryegrass, Italian: 100
[4]; [16]
  Plant response rating, Wheat, Winter: 0
[4]; [17]
  Plant response rating, Wheat, Winter: 30
[4]; [18]
  Plant response rating, Wheat, Winter: 60
[4]; [19]
  Plant response rating, Wheat, Winter: 90
[4]; [20]
  Plant response rating, Wheat, Winter: 0
[4]; [21]
  Plant response rating, Wheat, Winter: 15
[4]; [22]
  Plant response rating, Wheat, Winter: 25
[4]; [23]
  Plant response rating, Wheat, Winter: 90
[5]; [16]
  Plant response rating, Barley, Winter: 10
[5]; [17]
  Plant response rating, Barley, Winter: 10
[5]; [18]
  Plant response rating, Barley, Winter: 25
[5]; [19]
  Plant response rating, Barley, Winter: 95
[5]; [20]
  Plant response rating, Barley, Winter: 0
[5]; [21]
  Plant response rating, Barley, Winter: 0
[5]; [22]
  Plant response rating, Barley, Winter: 20
[5]; [23]
  Plant response rating, Barley, Winter: 40
[6]; [16]
  Plant response rating, Wheat, Spring: 15
[6]; [17]
  Plant response rating, Wheat, Spring: 50
[6]; [18]
  Plant response rating, Wheat, Spring: 75
[6]; [19]
  Plant response rating, Wheat, Spring: 95
[6]; [20]
  Plant response rating, Wheat, Spring: 0
[6]; [21]
  Plant response rating, Wheat, Spring: 0
[6]; [22]
  Plant response rating, Wheat, Spring: 90
[6]; [23]
  Plant response rating, Wheat, Spring: 98
[7]; [16]
  Plant response rating, Blackgrass: 65
[7]; [17]
  Plant response rating, Blackgrass: 90
[7]; [18]
  Plant response rating, Blackgrass: 100
[7]; [19]
  Plant response rating, Blackgrass: 100
[7]; [20]
  Plant response rating, Blackgrass: 35
[7]; [21]
  Plant response rating, Blackgrass: 75
[7]; [22]
  Plant response rating, Blackgrass: 90
[7]; [23]
  Plant response rating, Blackgrass: 98
[8]; [16]
  Plant response rating, Windgrass: 0
[8]; [17]
  Plant response rating, Windgrass: 0
[8]; [18]
  Plant response rating, Windgrass: 15
[8]; [19]
  Plant response rating, Windgrass: 30
[8]; [20]
  Plant response rating, Windgrass: 0
[8]; [21]
  Plant response rating, Windgrass: 20
[8]; [22]
  Plant response rating, Windgrass: 60
[8]; [23]
  Plant response rating, Windgrass: 80
[9]; [16]
  Plant response rating, Bluegrass: 0
[9]; [17]
  Plant response rating, Bluegrass: 20
[9]; [18]
  Plant response rating, Bluegrass: 20
[9]; [19]
  Plant response rating, Bluegrass: 20
[9]; [20]
  Plant response rating, Bluegrass: 0
[9]; [21]
  Plant response rating, Bluegrass: 35
[9]; [22]
  Plant response rating, Bluegrass: 60
[9]; [23]
  Plant response rating, Bluegrass: 70
[10]; [16]
  Plant response rating, Foxtail, Green: 90
[10]; [17]
  Plant response rating, Foxtail, Green: 100
[10]; [18]
  Plant response rating, Foxtail, Green: 100
[10]; [19]
  Plant response rating, Foxtail, Green: 100
[10]; [20]
  Plant response rating, Foxtail, Green: 75
[10]; [21]
  Plant response rating, Foxtail, Green: 90
[10]; [22]
  Plant response rating, Foxtail, Green: 100
[10]; [23]
  Plant response rating, Foxtail, Green: 100
[11]; [16]
  Plant response rating, Barley, Spring: 0
[11]; [17]
  Plant response rating, Barley, Spring: 20
[11]; [18]
  Plant response rating, Barley, Spring: 50
[11]; [19]
  Plant response rating, Barley, Spring: 100
[11]; [20]
  Plant response rating, Barley, Spring: 0
[11]; [21]
  Plant response rating, Barley, Spring: 0
[11]; [22]
  Plant response rating, Barley, Spring: 15
[11]; [23]
  Plant response rating, Barley, Spring: 40
[12]; [16]
  Plant response rating, Pigweed: 0
[12]; [17]
  Plant response rating, Pigweed: 0
[12]; [18]
  Plant response rating, Pigweed: 0
[12]; [19]
  Plant response rating, Pigweed: 0
[12]; [20]
  Plant response rating, Pigweed: 0
[12]; [21]
  Plant response rating, Pigweed: 0
[12]; [22]
  Plant response rating, Pigweed: 0
[12]; [23]
  Plant response rating, Pigweed: 0
[13]; [24]
  Plant response rating, Wheat: 20
[13]; [25]
  Plant response rating, Wheat: 70
[13]; [26]
  Plant response rating, Wheat: 30
[13]; [27]
  Plant response rating, Wheat: 90
[14]; [24]
  Plant response rating, Velvetleaf: 0
[14]; [25]
  Plant response rating, Velvetleaf: 0
[14]; [26]
  Plant response rating, Velvetleaf: 0
[14]; [27]
  Plant response rating, Velvetleaf: 0
[15]; [24]
  Plant response rating, Foxtail, Giant: 80
[15]; [25]
  Plant response rating, Foxtail, Giant: 100
[15]; [26]
  Plant response rating, Foxtail, Giant: 100
[15]; [27]
  Plant response rating, Foxtail, Giant: 100
